Laboratory results published in patent US10564150B2, “Cell mediated immune response assay” (priority 2012, dated 2020).

Legend:
[1] = tested on: whole blood from donors; IFN-gamma response to CMV antigens; assay: QFN CMV assay with four different non-reducing sugars; format: cell-based, human; details: for response to the CMV antigens (percentage increase in IFN-gamma IU/ml over the non-additive tube): 2 mg/ml final blood concentration, 5 donors, background subtracted
Procedure: For this experiment, four different non-reducing sugars were added to QFN CMV antigen tubes and a corresponding Nil tube. To reach a final blood concentration of 2 mg/ml, a corresponding solution of sucrose, trehalose, mannitol and raffinose in PBS was added to whole blood obtained from 5 donors. […] The assay was run in accordance with the QFN package insert which is an established assay. The x-axis (see FIG. 3) indicates the tested conditions. The background (value from Nil tubes with/without the addition of the respective sugar) was subtracted from the corresponding CMV tube and the percentage increase in the IFN-gamma value (IU/ml) over the non-additive tube calculated (y axis).

[2] = tested on: whole blood IFN-gamma response to EBNA-1 from the Epstein-Barr virus; assay: QuantiFERON assay measuring anti-EBV cellular immune responses (EBNA-1 peptides) plus/minus trehalose; format: cell-based
Procedure: Investigations using QuantiFERON technology to measure responses to the model antigen EBNA-1 from the Epstein-Barr virus were performed to assess increases in assay sensitivity induced by the addition of non-reducing sugars to the incubation mixture. Briefly, EBNA-1 peptides were added to a blood collection tube, plus/minus 3 concentrations of a trehalose solution (0.5, 1.0 or 2.0 mg/ml trehalose). QuantiFERON assay measuring anti-EBV cellular immune responses was run according to the manufacturer's instructions. The IFN-gamma response was determined and compared depending on the concentration of trehalose. […] A concentration of 2 mg/ml trehalose provided the best results in this test assay.

[3] = tested on: blood from healthy donors; CD8+ T cells, IFN-gamma response to Cytomegalovirus peptides; assay: QFN-CMV assay with addition of trehalose; format: cell-based, human
Procedure: QuantiFERON (QFN) CMV is a CE registered assay monitoring T cell immune memory directed against antigens derived from the Cytomegalovirus. The QFN-CMV blood tubes contain peptides designed to specifically activate CD8+ T cells to produce interferon gamma (IFN-gamma). These tubes only contain peptide and heparin, with no addition of any sugar molecule.
This experiment aimed to investigate the effect on the IFN-gamma response when the non-reducing sugar, trehalose, was added to QFN-CMV tubes. 0, 1, 5 or 10 mg/ml of a trehalose (in water) solution was added to QFN-CMV blood collection tubes. 1 ml of blood from 17 healthy donors with a known anti-CMV T cell response was then added to each of the four tubes, and in addition a Nil tube and a Mitogen tube were run as controls. The QFN assay was then run according to the package insert. All values had the Nil value subtracted. IFN-gamma levels in IU/ml were normalized against the respective QFN-CMV+0 mg/ml trehalose (untreated control) to generate a ‘fold-change’ unit; to control for inter-donor variation in response magnitude. Healthy donors without a detectable anti-CMV immune response were included to control against non-specific IFN-gamma induction by trehalose.

[4] = tested on: whole blood from subjects with MTB infection; IFN-gamma response to Mycobacterium tuberculosis antigens ESAT-6 and CFP-10; assay: QFN-TB antigen tubes manufactured with or without trehalose; format: cell-based, human; details: trehalose tube versus sugar free tube; 20 subjects with MTB infection; paired one-tailed t test, P=0.0005

Compound: OC[C@@H](O)[C@@H](O)[C@H](O)[C@H](O)CO [mannitol]
- response to the CMV antigens (percentage increase in IFN-gamma IU/ml over the non-additive tube) [1]: increased response

Compound: OC[C@H]1O[C@H](OC[C@H]2O[C@H](O[C@]3(CO)O[C@H](CO)[C@@H](O)[C@@H]3O)[C@H](O)[C@@H](O)[C@@H]2O)[C@H](O)[C@@H](O)[C@H]1O [raffinose]
- response to the CMV antigens (percentage increase in IFN-gamma IU/ml over the non-additive tube) [1]: increased response

Compound: OC[C@H]1O[C@@](CO)(O[C@H]2O[C@H](CO)[C@@H](O)[C@H](O)[C@H]2O)[C@@H](O)[C@@H]1O [sucrose]
- response to the CMV antigens (percentage increase in IFN-gamma IU/ml over the non-additive tube) [1]: increased response

Compound: OC[C@H]1O[C@H](O[C@H]2O[C@H](CO)[C@@H](O)[C@H](O)[C@H]2O)[C@H](O)[C@@H](O)[C@@H]1O [trehalose]
- IFN-gamma response ([2]; 0.5, 1.0 or 2.0 mg/ml trehalose, with increasing concentration): increase in IFN-gamma response
- trehalose concentration providing the best results ([2]; of 0.5, 1.0 and 2.0 mg/ml tested): 2 mg/mL
- response to the CMV antigens (percentage increase in IFN-gamma IU/ml over the non-additive tube) [1]: increased response
- rank of the increase among the four non-reducing sugars ([1]; 2 mg/ml, order trehalose, mannitol, sucrose, raffinose): highest increase
- mean level of IFN-gamma (fold change versus matched untreated control) ([3]; 0, 1, 5 or 10 mg/ml trehalose, 17 healthy donors with known anti-CMV T cell response, Nil subtracted): concentration-dependent increase
- IFN-gamma fold change versus untreated control, significance ([3]; 5 and 10 mg/ml trehalose, Friedmans test with Dunns multiple comparisons test): significant increase
- background level of IFN-gamma in CMV-negative control donors ([3]; trehalose added, data not shown): No significant increase
- quantitative response of the assay (IFN-gamma IU/ml, nil subtracted) [4]: significantly enhanced
